Earlier results on one substance are cited in PMC8433641, “A Stability-Indicating Ultra Performance Liquid Chromato-Graphic (UPLC) Method for the Determination of a Mycophenolic Acid-Curcumin Conjugate and Its Applications to Chemical Kinetic Studies” (Molecules, 2021).

Details of the data set: method as in PMID 29678124. The settings on record: pH 7.4.

For the substance curcumin, the t1/2 was 33.6 min.
